According to US20150174273A1, “IMAGING AND THERAPEUTIC METHODS FOR TREATING PARATHYROID TUMORS” (EMORY UNIVERSITY, priority 2012, published 2015):

Tests used:
[1] = tested on: primary human parathyroid cells; test: 18F FACBC uptake assay; format: cell-based; conditions: preliminary experiments
Source text: BCH is L type transporter inhibitor (2-amino-2-norboranecarboxylic acid), MeAlB is an A type inhibitor (2-[methylamine]isobutric acid), ACS is a multiple amino acid transporter inhibitor (L-alanine, L-cystine, L-serine).
In certain embodiments, the disclosure contemplates methods of ^18F-FACBC Imaging. […] See McConathy et al., Appl Radiat Isot. 2003; 58(6):657-66, hereby incorporated by reference. Parathormone is a peptide hormone, and the bioactive conformation includes a long helical dimer containing leucine residues. […] It is contemplated that parathyroid cells concentrate Anti-^18F-FACBC, and thus Anti-^18F-FACBC can be used as an imaging probe for PET imaging.

[2] = in vivo; cited from earlier work
[3] = tested on: FRs on freshly excised, non-cultured human PT adenoma cells; test: 99mTc-EC20 uptake by PT adenoma cell slurry with or without cold folate block; format: cell-based; conditions: for 99mTc-EC20 uptake, not blocked: absence of cold folate; for 99mTc-EC20 uptake, blocked: pre-incubation with cold folate (200 μM)
Protocol: Some aliquots of cells were blocked by pre-incubation with cold folate (FA) (yellow bars).

Row | SMILES | uptake of Anti-18F-FACBC by primary human parathyroid cells [1] | pancreatic concentration [2] | renal excretion [2] | 99mTc-EC20 uptake, not blocked ([3]; 20 μl PT adenoma cell slurry) [% dose/20 μl tissue prep] | 99mTc-EC20 uptake, blocked ([3]; 20 μl PT adenoma cell slurry) [% dose/20 μl tissue prep] | 99mTc-EC20 uptake, not blocked ([3]; 70 μl PT adenoma cell slurry) [% dose/70 μl tissue prep] | 99mTc-EC20 uptake, blocked ([3]; 70 μl PT adenoma cell slurry) [% dose/70 μl tissue prep]
1 | NC1(C(=O)O)CC([18F])C1 (stereo not drawn) [Anti-^18F-FACBC, anti-1-amino-^18F-flurocyclobutane-1 carboxylic acid] | significant specific uptake | high pancreatic concentration | low renal excretion |  |  |  | 
2 | [NH-][C@@H](CNC(=O)CC[C@@H](NC(=O)c1ccc(NCc2cnc3nc(N)[nH]c(=O)c3n2)cc1)C(=O)O)C(=O)[N-][C@@H](CC(=O)O)C(=O)[N-][C@@H](C[S-])C(=O)O.[O]=[Tc+4] [99mTc-EC20] |  |  |  | 3.4±0.4 | 1.9±0.2 | 10.9±0.9 | 5.7±0.3
